Assay results from the NIST ThermoML archive (doi:10.1021/je201211f).
Numbers after ± are expanded uncertainties.

Legend:
[1] = 298.15 K, 101.33 kPa, Liquid; for viscosity: Capillary tube (Ostwald / Ubbelohde) method; for mass density: Vibrating tube method
[2] = refractive index (Na D-line) (dimensionless); conditions: 298.15 K; 101.33 kPa; Liquid; Standard Abbe refractometry
[3] = refractive index (Na D-line) (dimensionless); xn = mol fraction of the nth substance listed; conditions: 298.15 K, 101 kPa, Liquid, Standard Abbe refractometry
[4] = xn = mol fraction of the nth substance listed; conditions: 101 kPa, Liquid; for mass density: Vibrating tube method; for viscosity: Capillary tube (Ostwald / Ubbelohde) method

CC(=O)O [acetic acid]
Conditions	mass density [kg/m3]	refractive index	viscosity [mPa·s]
[1]	1043.58 ± 0.08	–	1.127 ± 0.009
[2]	–	1.3698 ± 0.0008	–

ClC=C(Cl)Cl [trichloroethene]
Conditions	mass density [kg/m3]	refractive index	viscosity [mPa·s]
[1]	1455.53 ± 0.33	–	0.582 ± 0.007
[2]	–	1.475 ± 0.0008	–

ClC=C(Cl)Cl [trichloroethene] + Cc1ccc(C)cc1
[3]
Conditions	refractive index
x1 = 0.0897	1.4921 ± 0.0005
x1 = 0.154	1.4911 ± 0.0005
x1 = 0.2402	1.4897 ± 0.0005
x1 = 0.318	1.4885 ± 0.0005
x1 = 0.399	1.4873 ± 0.0005
x1 = 0.4801	1.486 ± 0.0005
x1 = 0.5624	1.4844 ± 0.0005
x1 = 0.64	1.4829 ± 0.0005
x1 = 0.721	1.4811 ± 0.0005
x1 = 0.7988	1.4794 ± 0.0005
x1 = 0.8834	1.4775 ± 0.0005
x1 = 0.961	1.4753 ± 0.0005

[4]
Conditions	mass density, 293.15 K [kg/m3]	mass density, 298.15 K [kg/m3]	mass density, 303.15 K [kg/m3]	viscosity, 298.15 K [mPa·s]
x1 = 0.0843	899.17 ± 0.3	894.6 ± 0.3	890.02 ± 0.3	–
x1 = 0.0897	–	–	–	0.6075 ± 0.0077
x1 = 0.154	–	–	–	0.606 ± 0.0077
x1 = 0.1806	944.97 ± 0.29	940.12 ± 0.29	935.27 ± 0.29	–
x1 = 0.2402	–	–	–	0.6043 ± 0.0077
x1 = 0.2528	980.96 ± 0.28	975.88 ± 0.28	970.8 ± 0.28	–
x1 = 0.318	–	–	–	0.6026 ± 0.0076
x1 = 0.3239	1017.91 ± 0.29	1012.59 ± 0.28	1007.28 ± 0.28	–
x1 = 0.399	–	–	–	0.5999 ± 0.0076
x1 = 0.403	1060.83 ± 0.3	1055.25 ± 0.29	1049.65 ± 0.29	–
x1 = 0.4801	–	–	–	0.5968 ± 0.0075
x1 = 0.49	1110.44 ± 0.31	1104.53 ± 0.3	1098.61 ± 0.3	–
x1 = 0.5624	–	–	–	0.594 ± 0.0075
x1 = 0.5689	1157.79 ± 0.32	1151.57 ± 0.32	1145.35 ± 0.31	–
x1 = 0.6381	1201.31 ± 0.33	1194.8 ± 0.33	1188.25 ± 0.32	–
x1 = 0.64	–	–	–	0.5915 ± 0.0074
x1 = 0.718	–	–	–	0.5888 ± 0.0074
x1 = 0.7202	1255.5 ± 0.34	1248.62 ± 0.34	1241.69 ± 0.34	–
x1 = 0.7975	1309.15 ± 0.36	1301.88 ± 0.35	1294.56 ± 0.35	–
x1 = 0.8	–	–	–	0.5861 ± 0.0073
x1 = 0.8834	–	–	–	0.5834 ± 0.0073
x1 = 0.8925	1379.16 ± 0.37	1371.4 ± 0.37	1363.59 ± 0.37	–
x1 = 0.9582	1430.28 ± 0.39	1422.14 ± 0.38	1413.95 ± 0.38	–
x1 = 0.9632	–	–	–	0.5808 ± 0.0073
